A short description of this data set: xn = mol fraction of the nth substance listed. Conditions: 101.3 kPa, Liquid, Pycnometric method.

± gives the expanded uncertainty stated by the source.

By mass density is commonly meant the mass of a sample divided by its volume. For the compound `CC(=O)CCC(=O)O` [4-oxopentanoic acid] + CCCC[N+](CCCC)(CCCC)CCCC.[Br-], the mass density (303.15 K, x1 = 0.75) amounted to 1093.5 ± 1.1 kg/m3; the mass density (313.15 K, x1 = 0.75) was 1086.2 ± 1.1 kg/m3; the mass density (323.15 K, x1 = 0.75) is reported as 1078.8 ± 1.1 kg/m3; the mass density (333.15 K, x1 = 0.75) is given as 1072.1 ± 1.1 kg/m3.
On the same counts, the results for `CC(=O)CCC(=O)O` [4-oxopentanoic acid] + CC[N+](CC)(CC)CC.[Br-] are 1169.9 ± 1.1 kg/m3, 1162.2 ± 1.1 kg/m3, 1154.6 ± 1.1 kg/m3 and 1147.4 ± 1.2 kg/m3.
Take `CC(=O)OCC[N+](C)(C)C.[Cl-]` [acetylcholine chloride] + CC(=O)CCC(=O)O: the mass density (303.15 K, x2 = 0.75) was found to be 1136.9 ± 1.1 kg/m3; the mass density (313.15 K, x2 = 0.75) came to 1129.4 ± 1.1 kg/m3; the mass density (323.15 K, x2 = 0.75) was found to be 1121.8 ± 1.1 kg/m3; the mass density (333.15 K, x2 = 0.75) is 1114.4 ± 1.1 kg/m3.
On the same counts, the results for `CCCC[N+](CCCC)(CCCC)CCCC.[Cl-]` [tetrabutylammonium chloride] + CC(=O)CCC(=O)O are 1027.3 ± 1.2 kg/m3, 1020.3 ± 1.3 kg/m3, 1013.1 ± 1.3 kg/m3 and 1006 ± 1.3 kg/m3.
With `CC[N+](CC)(CC)CC.[Cl-]` [tetraethylammonium chloride] + CC(=O)CCC(=O)O, the mass density worked out at 1090.3 ± 1.3 kg/m3 (303.15 K, x2 = 0.75); 1083.3 ± 1.3 kg/m3 (313.15 K, x2 = 0.75); 1076.1 ± 1.3 kg/m3 (323.15 K, x2 = 0.75); 1069.2 ± 1.3 kg/m3 (333.15 K, x2 = 0.75).

For the origin of these results see the NIST ThermoML archive (doi:10.1016/j.jct.2016.08.015).
